Source: patent US7244712B2, “Aminoglycoside antibiotics and methods of using same” (priority 2004, dated 2007)
Where two headings read alike, the source gives them in different places.

Columns and labels:
[1] = molecular target: 70S ribosome; experiment: Fluorescence anisotropy binding to 70S ribosomes; settings: E. coli ribosomes
Procedure: (§1) After establishing the lack of stereospecificity in the binding of aminoglycosides to the A-site RNA constructs (FIG. 9A-C) where the binding affinity, KD, is about 0.1 μM to about 100 μM, the stereospecificity of aminoglycoside binding to intact ribosomes was determined. Both yeast and E. coli ribosomes were prepared and aminoglycoside binding was measured using fluorescence anisotropy methods. For example, fluorescence anisotropy methods recited in Wang, Y., and Rando, R. R. Chem. Biol. (1995) 2, 281-290; and Wang, Y., Hamasaki, K., and Rando, R. R. Biochemistry (1997) 36,768-779. CRP was used as the binding probe. […] Binding data reported herein for aminoglycoside compounds with eukaryotic yeast ribosomes are similar to binding data for said aminoglycoside compounds with ribosoimes in bacteria and with eukaryotic A-site rRNA constructs.
(§2) 5-Carboxytetramethylrhodamine-labeled paromomycin (CRP) and tobramycin (CRT) concentrations were determined spectroscopically at 550 nm using a molar extinction coefficient of 6.00×10 4 M −1 cm −1. Fluorescence anisotropy measurements were performed on a Perkin-Elmer LS-50B luminescence spectrometer equipped with a thermostat accurate to ±0.1° C. as indicated previously (Wang, Y., Hamasaki, K., & Rando, R. R. (1997) Biochemistry 36, 768-779). The tracer solution was excited at 550 nm and monitored at 580 nm. The integration time was 5 s. For every point, 6 measurements were taken, and their average values were used for calculation. Measurements were carried out in a buffer solution containing 150 mM NaCl, 5 mM KCl, 1 mM CaCl2, 1 mM MgCl2, and 20 mM HEPES (pH 7.5). Prior to measurements, RNA constructs were renatured by incubating in binding buffer {150 mM NaCl, 5 mM KCl, 1 mM CaCl2, 1 mM MgCl2, and 20 mM HEPES (pH 7.5)} for 3 minutes at 90° C. followed by slow cooling to 25° C.
(§3) Equation 1 was used for the determination of the dissociation constant (Kd) for the interactions between RNA or ribosome and CRP. A=A0+DA{(RNA)0+(CRP)0+Kd−({(RNA)0+(CRP)0+Kd}^2−4(RNA)0(CRP)0)½}/2 where A and A0 are the fluorescence anisotropy of CRP in the presence and absence of RNA, respectively, and DA is the difference between the fluorescence anisotropy of CRP in the presence of an extrapolated infinite concentration of RNA minus the fluorescence anisotropy in the absence of RNA. (RNA)0 and (CRP)0 are the initial concentrations of RNA and CRP, respectively.
(§4) Equation 2 is used for the calculation of the KD values in the competition binding assay. (aminoglycoside)0={KD(A−−A)/Kd(A−A0)+1}{(RNA)0−Kd(A−A0)/(A−−A)−(CRP)0(A−A0)/(A−−A)} where KD is the dissociation constant between the RNA and the aminoglycosides; (aminoglycoside)0 is the initial concentration of the aminoglycosides; AL is anisotropy of completely bound tracer. Both Kd and KD were determined by non-linear curve fitting using the equations described above, and are presented as mean values of three independent measurements.
The purification of E. coli (E600) 70S ribosomes was carried out according to the published procedure (Lazaro, E., van den Broek, L. A. G. M., Felix, A. S., Ottenheijm, H. C. J., Ballesta, J. P. G. (1991) Biochemistry 30, 9642-9648). E. coli MRE600 were grown for 12 h in 6L of LB medium (10 g trypton, 5 g yeast extract, 5 g NaCl per 1 L, pH 7.0) at 37° C. Crude ribosomes were precipitated from clarified supernatant by 4 h centrifugation at 25,000 rpm in Beckman SW 28 rotor at 4° C. The ribosome pellets were collected in 5 mL of buffer BR1, containing 10 mM HEPES, pH 7.5, 500 mM ammonium acetate, 100 mM magnesium chloride and 2.5 mM DTT. The ribosome suspension was centrifuged for 20 min at 15000 rpm to be clarified. The clarified sample was loaded over two layers of 20% and 40% sucrose in buffer BR1 and centrifuged for 18 hr at 19000 rpm in Beckman SW28 rotor at 4° C. […]

[2] = molecular target: 80S ribosome; experiment: Fluorescence anisotropy binding to 80S ribosomes; design: species or system yeast (S. cerevisiae); settings: yeast ribosomes
Procedure: as §1, §2, §3, §4
The purification of yeast 80S ribosomes from S. cerevisiae strain YSB 758 was carried out according to the published procedure (Verschoor, A., Warner, J. R., Srivastava, S., Grassucci, R. A., & Frank, J. (1997) Nucl. Acid Res. 26, 655-661). S. cerevisiea YSB 758 were grown for 12 hrs at 30° C. in 2L of YPD medium, containing: 20 g bacto peptone, 20 g glucose, 10 g yeast extract and 0.15 g tryptophan per 1 L, pH 7.0. The cells were lysed by 5-10 cycles of 1 min vigorous shaking with glass beads with a vortex, followed by cooling on ice. Clarified cell extract (about 9 mL total, used in 6 portions in 1.5 mL aliqouts) was carefully loaded on top of 2 mL of a cushion, composed of 10% sucrose and 5% ammonium sulfate dissolved in buffer YR1 (20 mM HEPES pH=7.4, 16 mM magnesium chloride, 100 mM potassium chloride, 5 mM DTT, and 0.5 mM EDTA). The ribosomes were collected by centrifugation in Beckman TL100.3 rotor at 75000 rpm for 3 h. The supernatants were carefully discarded and ribosomes were collected in buffer YR1. […]

[3] = molecular target: bacterial 16S A-site rRNA construct (B), D-RNA; experiment: Fluorescence anisotropy binding, D-RNA bacterial A-site decoding region construct B
From the text: (§5) Experiments were designed to probe the stereospecificity of aminoglycoside binding to the RNA constructs shown in FIG. 9 because these small rRNA constructs mimic ribosomal decoding region RNA function. The three constructs shown include a bacterial 16S A-site rRNA construct (B) (27), its human counterpart (H), and an RNA aptamer (J6f1) selected to bind to the aminoglycoside tobramycin (12,15,16).
(§6) L-aminoglycoside binding to D-RNA sequences are energetically equivalent to binding the enantiotopic D-aminoglycoside to an L-RNA sequence. Initial binding experiments were carried out using enantiomerically pure L-RNA constructs, B, H, and J6f1 (FIG. 9A-C) and D-aminoglycoside compounds. Circular dichroism spectra of the purified constructs confirm the enantiomeric relationship of the corresponding D-RNA and L-RNA constructs (FIGS. 1A-C). The constructs were tested for aminoglycoside binding using the fluorescence anisotropy method described in Example 4. In these measurements, the fluorescent aminoglycoside CRP bearing a rhodamine chromaphore is used to monitor binding to the decoding region constructs (B and H) and fluorescent aminoglycoside CRT bearing a rhodamine chromaphore was used to monitor binding to RNA construct J6f1 (FIG. 9C). See, for example, Wang, Y. and Rando, R. R. Chem. Biol. (1995) 2, 281-290; Hamasaki, K., Killian, J. Cho, J., and Rando, R. R. Biochemistry (1998) 37, 656-663; and Cho, J. and Rando, R. R. (1999) Biochemistry 38, 8548-8554.
(§7) 5-Carboxytetramethylrhodamine-labeled paromomycin (CRP) and tobramycin (CRT) concentrations were determined spectroscopically at 550 nm using a molar extinction coefficient of 6.00×10 4 M −1 cm −1. Fluorescence anisotropy measurements were performed on a Perkin-Elmer LS-50B luminescence spectrometer equipped with a thermostat accurate to ±0.1° C. as indicated previously (Wang, Y., Hamasaki, K., & Rando, R. R. (1997) Biochemistry 36, 768-779). The tracer solution was excited at 550 nm and monitored at 580 nm. The integration time was 5 s. […]
as §3, with “(RNA)0 and (CRP)0 are the initial concentrations of RNA and CRP, respectively.” left out
(§8) Equation 2 is used for the calculation of the KD values in the competition binding assay. […] Both Kd and KD were determined by non-linear curve fitting using the equations described above, and are presented as mean values of three independent measurements.

[4] = molecular target: bacterial 16S A-site rRNA construct (B), L-RNA; experiment: Fluorescence anisotropy binding, L-RNA bacterial A-site decoding region construct B
From the text: as §5, §6, §7
as §3, with “(RNA)0 and (CRP)0 are the initial concentrations of RNA and CRP, respectively.” left out
as §8

[5] = molecular target: human A-site decoding region construct (H), D-RNA; experiment: Fluorescence anisotropy binding, D-RNA human A-site decoding region construct H
From the text: as §5, §6, §7
as §3, with “(RNA)0 and (CRP)0 are the initial concentrations of RNA and CRP, respectively.” left out
as §8

[6] = molecular target: human A-site decoding region construct (H), L-RNA; experiment: Fluorescence anisotropy binding, L-RNA human A-site decoding region construct H
From the text: as §5, §6, §7
as §3, with “(RNA)0 and (CRP)0 are the initial concentrations of RNA and CRP, respectively.” left out
as §8

[7] = molecular target: RNA aptamer J6f1, D-RNA; experiment: Fluorescence anisotropy binding, D-J6f1 tobramycin binding aptamer
From the text: as §5, §6, §7
as §3, with “(RNA)0 and (CRP)0 are the initial concentrations of RNA and CRP, respectively.” left out
as §8

[8] = molecular target: RNA aptamer J6f1, L-RNA; experiment: Fluorescence anisotropy binding, L-J6f1 tobramycin binding aptamer
From the text: as §5, §6, §2, §3, §8

[9] = system: E. coli S30 extract, containing 70S ribosomes; experiment: In vitro protein translation (CAT mRNA, 35S methionine incorporation); type: biochemical; settings: quantitation of gel bands, read-out: IC50, concentration producing 50% inhibition of translation
Procedure: Protein translation was performed from chloramphenicol acetyl transferase (CAT) mRNA. […] A commercial E. coli ribosomal suspension was supplemented with an E. coli extract containing the required elements for translation. These include translation factors, tRNAs, and aminoacyl tRNA synthases. Plasmid, T7 RNA polymerase and amino acids were added to the reaction mixture, and both transcription and translation steps were performed in the same vial. The effects of the aminoglycosides on the translation process were evaluated by measuring the incorporation of ^35S methionine in the translated chloramphenicol acetyl transferase protein.
In vitro translation was performed by using PROTEINscript™-PRO (Ambion) kit. […] Reaction mixtures contained appropriate concentrations of antibiotic (neomycin B, D- and L-neamine). The protein was translated from CAT mRNA, transcribed from control DNA template containing CAT gene under control of the T7 promotor. The product, ˜25 kDa chloramphenicol acetyl transferase, was labeled during translation with 1 μCi ^35S methionine (New England Nuclear) per reaction (no cold methionine was added).
Following the translation, the samples were analyzed by electrophoresis on 4-20% SDS mini-gels (Invitrogen) for 1.5 h at 120V. Gels were fixed with 40% methanol/10% acetic acid and exposed to Molecular Dynamics phosphoimager plates, which were read on a Personal FX phosphoimager (Bio-Rad) and quantitated using QuantityOne™ software.

[10] = competition with CRP, read-out: Dissociation constant (KD) with 80S ribosome
[11] = competition with CRP, read-out: Dissociation constant of aminoglycoside complex with D-B
[12] = competition with CRP, read-out: Dissociation constant of aminoglycoside complex with L-B
[13] = competition with CRP, read-out: Dissociation constant of aminoglycoside complex with D-H
[14] = competition with CRP, read-out: Dissociation constant of aminoglycoside complex with L-H
[15] = competition with CRT, read-out: Dissociation constant of aminoglycoside complex with D-J6f1
[16] = competition with CRT, read-out: Dissociation constant of aminoglycoside complex with L-J6f1
[17] = competition with CRP, read-out: Dissociation constant (KD) with 70S ribosome

Compound	Kd [2, 10] [nM]	Kd [3, 11] [nM]	Kd [4, 12] [nM]	Kd [5, 13] [nM]	Kd [6, 14] [nM]	Kd [8, 16] [nM]	Kd [1, 17] [nM]	further results
[H]/N=C(/N)N[C@H]1[C@H](O)[C@@H](O)[C@H](O[C@@H]2O[C@@H](C)[C@](O)(C=O)[C@H]2O[C@@H]2O[C@@H](CO)[C@H](O)[C@@H](O)[C@@H]2NC)[C@@H](N/C(N)=N\[H])[C@@H]1O [Streptomycin]	30500							Dissociation constant (KD) with 70S ribosome ([1]; competition with CRP): did not exhibit measurable binding
Neomycin	110 ± 14	52 ± 1.86	109 ± 4.6	260 ± 3.6	1410 ± 14	360 ± 21	140 ± 38	Kd [7, 15]: 5590 ± 1390 nM; Kd ([1]; competition with CRP, listed as neomycin B, read-out: Dissociation constant (KD) with 70S ribosome): ~100 nM; IC50 [9]: 15000 nM
NCC1OC(OC2C(N)CC(N)C(O)C2O)C(N)C(O)C1O (single isomer, unassigned) [4-Isomer of L-Neamine (ent-3), 4-isomer of L-Neamine]	33000 ± 5840						6400 ± 870	
NC[C@@H]1O[C@H](O[C@H]2[C@@H](O)[C@H](O[C@@H]3[C@@H](O)[C@H](N)C[C@H](N)[C@H]3O[C@H]3O[C@H](CO)[C@@H](O)[C@H](O)[C@H]3N)O[C@@H]2CO)[C@H](N)[C@@H](O)[C@@H]1O [Paromomycin]	1970 ± 100	1650 ± 350	6380 ± 270	2200 ± 170	2760 ± 260	4600 ± 370	1410 ± 150	
NCC1OC(OC2C(O)C(N)CC(N)C2O)C(N)C(O)C1O [5-Isomer of D-Neamine (2), 5-isomer of D-Neamine]	2220 ± 110						910 ± 130	
5-carboxytetramethyl rhodamine-labeled paromomycin [CRP]								Kd ([3]; direct binding of fluorescent tracer CRP, read-out: Dissociation constant of CRP complex with D-B): 170 ± 17.5 nM; Kd ([4]; direct binding of fluorescent tracer CRP, read-out: Dissociation constant of CRP complex with L-B): 224 ± 22.6 nM; Kd ([5]; direct binding of fluorescent tracer CRP, read-out: Dissociation constant of CRP complex with D-H): 1360 ± 180 nM; Kd ([6]; direct binding of fluorescent tracer CRP, read-out: Dissociation constant of CRP complex with L-H): 900 ± 76 nM; Kd ([1]; direct binding of CRP, read-out: Dissociation constant (Kd) of CRP with 70S Ribosome): 3.7 ± 1.1 nM; Kd ([2]; direct binding of CRP, read-out: Dissociation constant (Kd) of CRP with 80S Ribosome): 3.2 ± 0.9 nM
NC[C@H]1O[C@H](O[C@H]2[C@H](O)[C@@H](O[C@H]3O[C@H](CO)[C@@H](O)[C@H](N)[C@H]3O)[C@H](N)C[C@@H]2N)[C@H](N)C[C@@H]1O [Tobramycin]	3690 ± 310	1400 ± 240	4390 ± 370	1570 ± 210	3220 ± 260	2180 ± 230	1760 ± 380	Kd [7, 15]: 5.2 ± 0.42 nM; Kd ([7]; read-out: KD of tobramycin with RNA aptamer J6f1): 5 nM; Kd ([8]; competition with CRT, listed as tobramycin, read-out: Dissociation constant of aminoglycoside complex with L-J6f1): 2200 nM
NCC1OC(OC2C(O)C(N)CC(N)C2O)C(N)C(O)C1O (single isomer, unassigned) [5-Isomer of L-Neamine (ent-2), 5-isomer of L-Neamine]	1530 ± 120						1550 ± 110	
5-carboxytetramethyl rhodamine-labeled tobramycin [CRT]								Kd ([7]; direct binding of fluorescent tracer CRT, read-out: Dissociation constant of CRT complex with D-J6f1): 190 ± 11 nM; Kd ([8]; direct binding of fluorescent tracer CRT, read-out: Dissociation constant of CRT complex with L-J6f1): 200 ± 28 nM
NCC1OC(OC2C(N)CC(N)C(O)C2O)C(N)C(O)C1O [6-Isomer of D-Neamine (3), 6-isomer of D-Neamine]	22500 ± 1250						30700 ± 1700	
